# Experimental data published in patent publication EP0086660B1, “Renally active tetrapeptides” (SMITHKLINE BECKMAN CORPORATION, priority 1982, dated 1985).
# Read-outs that look alike come from different tables or passages of the source. Square brackets hold non-standard residues; d marks the D form. Peptide text beside a SMILES is read from it. * marks the point of attachment. Butanoyl(4-(4-HOPh)) = O=C(CCCc1ccc(O)cc1)*
# Assays:
# anesthetized dogs = test: anesthetized dog protocol: infusion, measuring MAP, RBF, RVR and HR; format: in vivo
# [1] = secondary test
# [2] = tested on: spontaneously hypertensive rat
# [3] = secondary test; remark: listed apart in the source
# [4] = cumulative effects at 300 µg/kg/min
compound,measurement,setting,value
"4-(4-hydroxyphenyl)-butyryl-L-prolyl-D,L-a-methylphenylalanyl-glycyl-L-proline [Example 2]",Renal blood flow,"anesthetized dogs; cumulative effect, measured after the normal period of the test, increased from 127 ml/min",162 mL/min
same,cardiac rate (HR),"anesthetized dogs; cumulative effect, measured after the normal period of the test, predrug level 140 BPM",105 BPM
same,ED15,[1],1.9e-06 µg/kg
same,activity in the spontaneously hypertensive rat protocol,"[2]; rat, in vivo",not active
same,water diuresis,[2]; spontaneously hypertensive rat protocol,slight water diuresis
same,reversal of antidiuretic hormone activity,toad bladder,inactive
"NCCc1ccc(O)c(O)c1 [Dopamine, dopamine]",ED15,[3],3.5 µg/kg
"O=C(NCC(=O)N1CCC[C@H]1C(=O)O)[C@@H](Cc1ccccc1)NC(=O)[C@@H]1CCCN1C(=O)CCCc1ccc(O)cc1 [Example 3, N-4-(4-hydroxyphenyl)-butyryl-L-prolyl-D-phenylalanyl-glycyl-L-proline] ({Butanoyl(4-(4-HOPh))}-P[dF]GP-OH)",HR,anesthetized dogs; [4],-8
same,RBF,anesthetized dogs; [4],+22
same,RVR,"anesthetized dogs; cumulative effects at 300 µg/kg/min, parameter name not printed before the value",-18
